In patent publication US20260250318A1, “COMPOSITIONS AND METHODS FOR CROSSING THE BLOOD BRAIN BARRIER” (VOYAGER THERAPEUTICS, INC., priority 2022, published 2026):

Columns and labels:
[1] = test system: brains, heart, liver, muscle, and DRG of the NHPs; assay: Maturation of TTM-001 and TTM-002 capsids, NGS enrichment in NHP tissues; type: in vivo; conditions: relative to AAV9 control
Summary of the method: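 Variants carry mutations within and flanking the loop IV peptide insert: positions 450–466 were triplet-randomized, while positions 449–466 received low-frequency point mutations. The combined pool went into two NHPs, and each peptide was scored by NGS enrichment ratio against AAV9.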

brain = assay: Matured TTM-001 and TTM-002 variants, NGS enrichment in mouse brain; type: in vivo, mice; conditions: relative to AAV9 control
[2] = NGS fold-enrichment of matured AAV capsid variants, NHP brain, RNA
[3] = NGS fold-enrichment of RNA, NHP brain
[4] = NGS fold-enrichment, DRG of NHPs
[5] = NGS fold-enrichment, NHP liver DNA
[6] = NGS fold-enrichment, NHP liver RNA
[7] = NGS fold-enrichment, NHP muscle
[8] = NGS fold-enrichment, RNA, brain of NHPs
[9] = NGS fold-enrichment, heart of NHPs
[10] = NGS fold-enrichment, liver DNA of NHPs
[11] = NGS fold-enrichment, liver RNA of NHPs
[12] = NGS fold-enrichment, muscle of NHPs
[13] = NGS fold-enrichment, brain of mice
[14] = NGS fold-enrichment, mouse brain

Sequence: KAINGSGSPHSKAHNQET
- Fold Enrichment relative to AAV9, Brain (NHP) [1, 2]: 52.973 fold
- Fold Enrichment relative to AAV9, DRG (NHP) ([1]; NHP DRG): 0.000 fold
- Fold Enrichment relative to AAV9, Heart (NHP) ([1]; NHP heart): 0.030 fold
- Fold Enrichment relative to AAV9, Liver DNA (NHP) ([1]; NHP liver, DNA): 0.058 fold
- Fold Enrichment relative to AAV9, Liver RNA (NHP) ([1]; NHP liver, RNA): 0.035 fold
- Fold Enrichment relative to AAV9, Muscle (NHP) ([1]; NHP muscle): 0.000 fold
- Fold Enrichment relative to AAV9, Brain (Mouse) (brain; mouse brain): 71.809 fold

Sequence: KAINGSGSPHSKAQDKQT
- Fold Enrichment relative to AAV9, Brain (NHP) [1, 2]: 54.452 fold
- Fold Enrichment relative to AAV9, DRG (NHP) ([1]; NHP DRG): 0.000 fold
- Fold Enrichment relative to AAV9, Heart (NHP) ([1]; NHP heart): 0.000 fold
- Fold Enrichment relative to AAV9, Liver DNA (NHP) ([1]; NHP liver, DNA): 0.223 fold
- Fold Enrichment relative to AAV9, Liver RNA (NHP) ([1]; NHP liver, RNA): 0.044 fold
- Fold Enrichment relative to AAV9, Muscle (NHP) ([1]; NHP muscle): 0.057 fold
- Fold Enrichment relative to AAV9, Brain (Mouse) (brain; mouse brain): 56.004 fold

Sequence: KAINGSGSPHSKAQDQET
- Fold Enrichment relative to AAV9, Brain (NHP) [1, 3]: 84.080 fold
- Fold Enrichment relative to AAV9, DRG (NHP) [1, 4]: 0.000 fold
- Fold Enrichment relative to AAV9, DRG (NHP) ([1]; NGS fold-enrichment, NHP DRG): 0.000 fold
- Fold Enrichment relative to AAV9, Heart (NHP) ([1]; NGS fold-enrichment, NHP heart): 0.000 fold
- Fold Enrichment relative to AAV9, Liver DNA (NHP) [1, 5]: 0.027 fold
- Fold Enrichment relative to AAV9, Liver RNA (NHP) [1, 6]: 0.194 fold
- Fold Enrichment relative to AAV9, Muscle (NHP) [1, 7]: 0.000 fold
- Fold Enrichment relative to AAV9, Brain (NHP) [1, 8]: 84.080 fold
- Fold Enrichment relative to AAV9, Heart (NHP) [1, 9]: 0.000 fold
- Fold Enrichment relative to AAV9, Liver DNA (NHP) [1, 10]: 0.027 fold
- Fold Enrichment relative to AAV9, Liver RNA (NHP) [1, 11]: 0.194 fold
- Fold Enrichment relative to AAV9, Muscle (NHP) [1, 12]: 0.000 fold
- Fold Enrichment relative to AAV9, Brain (Mouse) (brain; [13]): 87.637 fold
- Fold Enrichment relative to AAV9, Brain (Mouse) (brain; [14]): 87.637 fold

Sequence: KAINGSGSPHSKAQNAQT
- Fold Enrichment relative to AAV9, DRG (NHP) [1, 4]: 0.000 fold
- Fold Enrichment relative to AAV9, Brain (NHP) [1, 8]: 69.651 fold
- Fold Enrichment relative to AAV9, Heart (NHP) [1, 9]: 0.000 fold
- Fold Enrichment relative to AAV9, Liver DNA (NHP) [1, 10]: 0.142 fold
- Fold Enrichment relative to AAV9, Liver RNA (NHP) [1, 11]: 0.023 fold
- Fold Enrichment relative to AAV9, Muscle (NHP) [1, 12]: 0.000 fold
- Fold Enrichment relative to AAV9, Brain (Mouse) (brain; [13]): 72.160 fold

Sequence: KAINGSGSPHSKAQNLAT
- Fold Enrichment relative to AAV9, Brain (NHP) [1, 3]: 101.954 fold
- Fold Enrichment relative to AAV9, DRG (NHP) [1, 4]: 0.000 fold
- Fold Enrichment relative to AAV9, DRG (NHP) ([1]; NGS fold-enrichment, NHP DRG): 0.000 fold
- Fold Enrichment relative to AAV9, Heart (NHP) ([1]; NGS fold-enrichment, NHP heart): 10.954 fold
- Fold Enrichment relative to AAV9, Liver DNA (NHP) [1, 5]: 0.239 fold
- Fold Enrichment relative to AAV9, Liver RNA (NHP) [1, 6]: 0.298 fold
- Fold Enrichment relative to AAV9, Muscle (NHP) [1, 7]: 8.655 fold
- Fold Enrichment relative to AAV9, Brain (NHP) [1, 8]: 101.954 fold
- Fold Enrichment relative to AAV9, Heart (NHP) [1, 9]: 10.954 fold
- Fold Enrichment relative to AAV9, Liver DNA (NHP) [1, 10]: 0.239 fold
- Fold Enrichment relative to AAV9, Liver RNA (NHP) [1, 11]: 0.298 fold
- Fold Enrichment relative to AAV9, Muscle (NHP) [1, 12]: 8.655 fold
- Fold Enrichment relative to AAV9, Brain (Mouse) (brain; [13]): 116.685 fold
- Fold Enrichment relative to AAV9, Brain (Mouse) (brain; [14]): 116.685 fold

Sequence: KAINGSGSPHSKAQSQQI
- Fold Enrichment relative to AAV9, Brain (NHP) [1, 2]: 56.976 fold
- Fold Enrichment relative to AAV9, DRG (NHP) ([1]; NHP DRG): 0.000 fold
- Fold Enrichment relative to AAV9, Heart (NHP) ([1]; NHP heart): 0.000 fold
- Fold Enrichment relative to AAV9, Liver DNA (NHP) ([1]; NHP liver, DNA): 0.000 fold
- Fold Enrichment relative to AAV9, Liver RNA (NHP) ([1]; NHP liver, RNA): 0.000 fold
- Fold Enrichment relative to AAV9, Muscle (NHP) ([1]; NHP muscle): 0.000 fold
- Fold Enrichment relative to AAV9, Brain (Mouse) (brain; mouse brain): 57.052 fold

Sequence: KAINGYDSPHKSGQKQQT
- Fold Enrichment relative to AAV9, Brain (NHP) [1, 3]: 83.803 fold
- Fold Enrichment relative to AAV9, DRG (NHP) ([1]; NGS fold-enrichment, NHP DRG): 0.041 fold
- Fold Enrichment relative to AAV9, Heart (NHP) ([1]; NGS fold-enrichment, NHP heart): 9.491 fold
- Fold Enrichment relative to AAV9, Liver DNA (NHP) [1, 5]: 0.150 fold
- Fold Enrichment relative to AAV9, Liver RNA (NHP) [1, 6]: 0.031 fold
- Fold Enrichment relative to AAV9, Muscle (NHP) [1, 7]: 0.000 fold
- Fold Enrichment relative to AAV9, Brain (Mouse) (brain; [14]): 13.057 fold

Sequence: KAINRSGSPHSKAQDQQT
- Fold Enrichment relative to AAV9, Brain (NHP) [1, 2]: 51.262 fold
- Fold Enrichment relative to AAV9, DRG (NHP) ([1]; NHP DRG): 0.000 fold
- Fold Enrichment relative to AAV9, Heart (NHP) ([1]; NHP heart): 0.000 fold
- Fold Enrichment relative to AAV9, Liver DNA (NHP) ([1]; NHP liver, DNA): 0.036 fold
- Fold Enrichment relative to AAV9, Liver RNA (NHP) ([1]; NHP liver, RNA): 0.000 fold
- Fold Enrichment relative to AAV9, Muscle (NHP) ([1]; NHP muscle): 0.000 fold
- Fold Enrichment relative to AAV9, Brain (Mouse) (brain; mouse brain): 54.631 fold

Sequence: KAISGHDSPHKSGLNQQT
- Fold Enrichment relative to AAV9, Brain (NHP) [1, 3]: 78.846 fold
- Fold Enrichment relative to AAV9, DRG (NHP) ([1]; NGS fold-enrichment, NHP DRG): 0.000 fold
- Fold Enrichment relative to AAV9, Heart (NHP) ([1]; NGS fold-enrichment, NHP heart): 0.079 fold
- Fold Enrichment relative to AAV9, Liver DNA (NHP) [1, 5]: 0.015 fold
- Fold Enrichment relative to AAV9, Liver RNA (NHP) [1, 6]: 0.000 fold
- Fold Enrichment relative to AAV9, Muscle (NHP) [1, 7]: 0.000 fold
- Fold Enrichment relative to AAV9, Brain (Mouse) (brain; [14]): 11.045 fold
